Patent US9605050B2, “Glycoprotein synthesis and remodeling by enzymatic transglycosylation” (UNIVERSITY OF MARYLAND, BALTIMORE, priority 2006, dated 2017)

What was measured:
Endo-A [1] = biological target: T1, Endo-A (Glutamicibacter protophormiae, UniProt Q9ZB22); test: Endo-A catalyzed transglycosylation of synthetic oligosaccharide oxazolines (donor substrates) with GlcNAc-peptide/protein acceptors; type: biochemical, Arthrobacter protophormiae; details: for donor substrate activity in Endo-A catalyzed transglycosylation: GlcNAc-tripeptide acceptor (27 or 40), phosphate buffer pH 6.5; for relative transglycosylation rates (order): acceptor 27, same conditions; for donor substrate activity in Endo-A transglycosylation to large acceptor: acceptor GlcNAc-C34, donor/acceptor 5:1
T1 sequence (Q9ZB22 entry or part of it): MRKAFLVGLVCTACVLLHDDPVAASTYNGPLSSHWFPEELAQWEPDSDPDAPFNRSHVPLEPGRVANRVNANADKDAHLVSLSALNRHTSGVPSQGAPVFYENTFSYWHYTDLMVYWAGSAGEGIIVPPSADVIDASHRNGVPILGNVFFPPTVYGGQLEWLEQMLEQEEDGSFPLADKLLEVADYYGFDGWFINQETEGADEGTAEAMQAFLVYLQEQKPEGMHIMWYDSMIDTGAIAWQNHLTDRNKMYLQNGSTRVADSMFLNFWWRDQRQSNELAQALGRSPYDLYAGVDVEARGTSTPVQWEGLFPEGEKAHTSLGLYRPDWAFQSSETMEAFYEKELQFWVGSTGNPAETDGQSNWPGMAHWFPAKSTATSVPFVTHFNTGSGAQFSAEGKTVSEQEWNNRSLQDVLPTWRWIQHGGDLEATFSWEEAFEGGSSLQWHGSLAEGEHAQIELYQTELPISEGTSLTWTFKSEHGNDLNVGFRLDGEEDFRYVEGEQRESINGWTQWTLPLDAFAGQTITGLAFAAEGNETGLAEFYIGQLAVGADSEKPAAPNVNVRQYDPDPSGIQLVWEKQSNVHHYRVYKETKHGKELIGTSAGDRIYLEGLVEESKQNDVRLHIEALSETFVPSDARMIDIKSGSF
Description: To test the transglycosylation potential of the synthetic oligosaccharide oxazolines, a small GlcNAc-tripeptide acceptor, Asn(GlcNAc)-Ile-Thr was synthesized, which represents the minimum consensus sequence for the N24 and N38 N-glycosylation sites in erythropoietin, an important therapeutic glycoprotein for the treatment of anemia.[25] […] As expected, the Endo-A catalyzed reaction of oxazolines 1 and 2 with the GlcNAc-peptide 27 (donoracceptor 3:1) proceeded smoothly in a phosphate buffer (pH 6.5) to give the corresponding N-glycopeptides 28 and 29 in 63 and 86% yields, respectively. […] Thus incubation of 3 and acceptor 27 (ratio 3:1) in the presence of Endo-A gave glycopeptide 30 carrying the N-linked tetrasaccharide moiety in 72% isolated yield. […] The Endo-A catalyzed reaction of 4 with acceptor 27 (3:1) afforded the modified glycopeptide 31 in 55% isolated yield.
(§1) In all cases, the newly formed glycosidic bond in the resulting glycopeptides 28, 29, 30, and 31 was determined by 2D NMR analysis (data not shown) to be a β-1,4-glycosidic linkage, confirming the previous conclusion that the Endo-A catalyzed transglycosylation using oligosaccharide oxazoline as the donor substrates proceeded in a regio- and stereospecific manner.[11]
Next, the structurally related disaccharide oxazolines 5-7 were tested. […] Despite this, the enzyme could tolerate selective modification on the mannose moiety, for example, attachment of additional sugar moieties at the 3′,6′-positions and even an aromatic group at the 6′-position.
(§2) This led to the synthesis of the large glycopeptide 32 that contains the core N-linked tetrasaccharide (75% yield) and glycopeptide 33 which carries a modified trisaccharide (68%) when an excess oxazoline donor (donor/acceptor 5:1) was used. […] Finally, we also tested whether Endo-A could hydrolyze the resulting “ground-state” glycopeptides 28-33 carrying the N-linked core tri-, tetra-, and pentasaccharide, respectively.
A mixture of the respective oligosaccharide oxazoline (10-30 μmol) and the GlcNAc-tripeptide 27 (3 molar equivalents of the donor) or the GlcNAc-C34[7] (5 molar equivalents of the donor) in a phosphate buffer (50 mM, pH 6.5, 0.5-1 mL) was incubated at 25° C. with the enzyme Endo-A (100 mU). The oxazoline derivative was added in portions during the reaction. The reaction was monitored by analytical HPLC by taking aliquots at intervals. It was observed that the transglycosylation reaction with the disaccharide oxazoline derivatives 1 and 4 proceeded slowly and took more than 48 h for reaching the plateau, while the transglycosylation with the tetrasaccharide oxazoline 2 proceeded quickly and would be complete within 2 h. The reaction was stopped by heating in a boiling water bath for 3 min when the peak of the transglycosylation product reached the maximum. The product was purified by preparative HPLC on a Waters preparative column (Symmetry 300, 19×300 mm) to afford the respective glycopeptide, which was characterized by NMR and ESI-MS).
To examine whether the endoglycosidase Endo-A is able to recognize the synthetic nonnatural sugar oxazoline for trans-glycosylation, a model reaction was carried out with a small GlcNAc-peptide, Ac-Asn(GlcNAc)-Ile-Thr (40),[9] as the acceptor, as shown in FIG. 11. The enzymatic reaction was monitored by reverse-phase HPLC. It was observed that the reaction between 39 and 40 (molar ratio 2:1) occurred quickly in the presence of Endo-A, while no ligation would occur in the absence of the enzyme. The glycosylation of the acceptor 40 with oxazoline 39 under the catalysis of Endo-A was essentially complete within 30 min to form the glycopeptide 41, which was isolated in 98% yield. The identity of the glycopeptide was characterized by ESI-MS and NMR.
A mixture of the hexasaccharide oxazoline 39 (0.69 mg, 0.68 μmol) and the GlcNAc-tripeptide 40 (0.2 mg, 0.34 μmol) in a phosphate buffer (50 mM, pH 6.5, 100 μl) was incubated at 23° C. with the enzyme Endo-A (200 mU). […]

Bacillus chitinase = details: cited from earlier work
Endo-A [2] = biological target: T1, Endo-A; test: Endo-A catalyzed transglycosylation of synthetic oligosaccharide oxazolines (donor substrates) with GlcNAc-peptide/protein acceptors; type: biochemical, Arthrobacter protophormiae; details: acceptor GlcNAc-RB (43), donor/acceptor 2:1, pH 6.5, 23° C., Endo-A 200 mU
Endo-A [3] = biological target: T1, Endo-A; test: Endo-A catalyzed hydrolysis of oxazolines and of the resulting glycopeptides/glycoprotein; type: biochemical, Arthrobacter protophormiae; details: glycopeptides: in the presence of large amount of Endo-A
Experimental: as §1, §2
This is understandable because glycoprotein 44 carries a nonnatural N-glycan and Endo-A is known to hydrolyze only high-mannose type natural N-glycans. […] All these factors contribute to the formation of the trans-glycosylation product. Similarly, Endo-A catalyzed reaction of GlcNAc-RB with the tetrasaccharide oxazoline 2 [7] gave the glycoprotein 45 carrying the core N-linked pentasaccharide Man3GlcNAc2 in 82% yield (Scheme 3). Again, the observed MS (14574.5 Da, from the deconvolution of the ESI-MS data) of the isolated product matches well with the calculated MS (14575.6 Da) of glycoprotein 45. […]

In the case of CC1=N[C@H]2[C@@H](O1)O[C@H](CO)[C@@H](O[C@@H]1O[C@H](CO)[C@@H](O)[C@H](O)[C@@H]1O)[C@@H]2O [oxazoline 1], the “donor substrate activity in Endo-A catalyzed transglycosylation” value (Endo-A [1]) is reported as “good donor substrates” and the “relative transglycosylation rates (order)” value (Endo-A [1]) is reported as “tetrasaccharide oxazoline 2>trisaccharide oxazoline 3>disaccharide oxazoline 1>Bn-substituted disaccharide oxazoline 4”.

With CC1=N[C@H]2[C@@H](O1)O[C@H](CO)[C@@H](O[C@@H]1O[C@H](CO[C@H]3O[C@H](CO)[C@@H](O)[C@H](O)[C@@H]3O)[C@@H](O)[C@H](O)[C@@H]1O)[C@@H]2O [oxazoline 3] the “donor substrate activity in Endo-A catalyzed transglycosylation” value (Endo-A [1]) was “efficient donor substrate”, the “relative transglycosylation rates (order)” value (Endo-A [1]) was “tetrasaccharide oxazoline 2>trisaccharide oxazoline 3>disaccharide oxazoline 1>Bn-substituted disaccharide oxazoline 4” and the “donor substrate activity in Endo-A transglycosylation to large acceptor” value (Endo-A [1]) was “proceeded successfully”.

In the case of CC1=N[C@H]2[C@@H](O1)O[C@H](CO)[C@@H](O[C@@H]1O[C@H](COCc3ccccc3)[C@@H](O)[C@H](O)[C@@H]1O)[C@@H]2O [oxazoline 4], the “donor substrate activity in Endo-A catalyzed transglycosylation” value (Endo-A [1]) is reported as “could still be recognized by Endo-A as a donor substrate”, the “relative transglycosylation rates (order)” value (Endo-A [1]) is reported as “tetrasaccharide oxazoline 2>trisaccharide oxazoline 3>disaccharide oxazoline 1>Bn-substituted disaccharide oxazoline 4” and the “donor substrate activity in Endo-A transglycosylation to large acceptor” value (Endo-A [1]) is reported as “proceeded successfully”.

With CC1=NC2C(O1)OC(CO)C(OC1OC(CO)C(O)C(O)C1O)C2O (stereo not drawn) [oxazoline 5] the “donor substrate activity in Endo-A catalyzed transglycosylation” value (Endo-A [1]; listed as 5) was “inactive”.

For CC(=O)N[C@H]1[C@H](O[C@H]2[C@H](O)[C@H]3N=C(C)O[C@H]3O[C@@H]2CO)O[C@H](CO)[C@@H](O)[C@@H]1O [oxazoline 6, chitobiose oxazoline, reference compound], the “donor substrate activity in Endo-A catalyzed transglycosylation” value (Endo-A [1]) is listed as “could not be recognized by Endo-A” and the “substrate of Bacillus chitinase” value (Bacillus chitinase) is listed as “substrates”.

In the case of CC1=NC2C(O1)OC(CO)C(OC1OC(CO)C(O)C(O)C1O)C2O (stereo not drawn) [oxazoline 7, LacNAc-oxazoline, reference compound], the “donor substrate activity in Endo-A catalyzed transglycosylation” value (Endo-A [1]; listed as 7) is given as “could not be recognized by Endo-A” and the “substrate of Bacillus chitinase” value (Bacillus chitinase) is given as “substrates”.

In the case of “O-β-D-Galactopyranosyl-(1→4)-α-D-mannopyranosyl-(1→3)-[β-D-galactopyranosyl-(1→4)-α-D-mannopyranosyl-(1→6)]-β-D-mannopyranosyl-(1β4)-(1,2-dideoxy-α-D-glucopyrano)-[2,1-d]-2-oxazoline [oxazoline 39]”, the “donor substrate activity in Endo-A catalyzed transglycosylation” value (Endo-A [1]) is reported as “excellent substrate”, the “time to essentially complete glycosylation of acceptor 40” value (Endo-A [1]; acceptor Ac-Asn(GlcNAc)-Ile-Thr (40), donor/acceptor 2:1, 23° C., Endo-A 200 mU) is reported as no more than 30 min and the “transglycosylation rate compared with enzymatic hydrolysis of the oxazoline” value (Endo-A [1]; in the presence of a GlcNAc-peptide or protein acceptor) is reported as “much faster”. The “time to complete conversion of GlcNAc-RB” value (Endo-A [2]) was no more than 2 h.

B1: glycoprotein 44: homogeneous ribonuclease B glycoform carrying nonnatural N-glycan Gal2Man3GlcNAc2 at Asn-34 (protein, UniProt P61823 27-150, looked up)
Ribonuclease pancreatic: KETAAAKFERQHMDSSTSAASSSNYCNQMMKSRNLTKDRCKPVNTFVHESLADVQAVCSQKNVACKNGQTNCYQSYSTMSITDCRETGSSKYPNCAYKTTQANKHIIVACEGNPYVPVHFDASV
modifications: Gal2Man3GlcNAc2 N-glycan at Asn-34
With B1 the “hydrolysis of the ground-state glycopeptide/glycoprotein by Endo-A” value (Endo-A [3]) was “resistant to Endo-A catalyzed hydrolysis”.
